Data: patent US20120258971A1, “THERAPEUTIC AGENT FOR CHRONIC PAIN” (OTSUKA PHARMACEUTICAL CO., LTD., priority 2009, published 2012)
Structures can show the parent of a compound that is named as a salt.

Tested on: chronic occipital-cervical pain
Assay: Pain intensity (numerical rating scale, NRS) in a chronic pain patient during drug treatment
Assay type: in vivo, human
Details: for Effect on pain of the chronic pain patient (in words): single chronic pain patient, oral administration, overall conclusion
Description: Morphine, fluvoxamine, aripiprazole, and other drugs were administered for about 11 months to a patient who was diagnosed as a chronic pain sufferer with chronic occipital-cervical pain that had continued for ten years or more. The intensity of the pain in the patients' occipital-cervical region (neck) was evaluated over time.
The intensity of pain was evaluated using a numerical rating scale (NRS) in which pain was orally reported on an 11-step scale (0 to 10). This evaluation method numerically expresses (quantifies) the degree of pain on a scale of 0 (no pain) to 10 (worst conceivable pain). This method provides a good reflection of the degree of pain of a patient before and after treatment.
From the 4th week of the first month, in addition to morphine, oral administration of fluvoxamine (Depromel tablets; produced by Meiji Seika Pharma Co., Ltd.) in a dose of 50 mg/day was started.
Then, from the 4th week of the 4th month, aripiprazole (Abilify tablets; produced by Otsuka Pharmaceutical Co., Ltd.) was orally administered in a dose of 3 mg/day. […] Furthermore, even when the administration of morphine was stopped from the 8th month, the NRS value remained at 0.
Thereafter, when the dose of aripiprazole (Abilify tablets; produced by Otsuka Pharmaceutical Co., Ltd.) was increased to 9 mg/day after the 4th week of the 9th month, and further increased to 12 mg/day after the 4th week of the 10th month, the NRS value was 0, and no change was observed.

O=C1CCc2ccc(OCCCCN3CCN(c4cccc(Cl)c4Cl)CC3)cc2N1 [aripiprazole, 7-{4-[4-(2,3-dichlorophenyl)-1-piperazinyl]butoxy}-3,4-dihydrocarbostyril]
NRS value (aripiprazole 3 mg/day oral from 4th week of 4th month, first week of the 5th month): 1
NRS value (aripiprazole 3 mg/day oral, from the second week of the 6th month): 0
NRS value (aripiprazole increased to 9 mg/day (after 4th week of 9th month) and 12 mg/day (after 4th week of 10th month)): 0
NRS value (aripiprazole, after morphine was stopped from the 8th month): 0
Effect on pain of the chronic pain patient (in words): could dramatically reduce the pain

COCCCC/C(=N\OCCN)c1ccc(C(F)(F)F)cc1 [fluvoxamine]
Effect on pain of the chronic pain patient (in words): the pain was not relieved at all

CN1CC[C@]23c4c5ccc(O)c4O[C@H]2[C@@H](O)C=C[C@H]3[C@H]1C5 [morphine hydrochloride tablets]
Effect on pain of the chronic pain patient (in words): the pain was not relieved
